Calls of active or inactive are those of the source.
Key:
[1] = biological target: T1, RNA-binding protein pos-1 (Caenorhabditis elegans, UniProt G5EF15); assay: inhibitors of POS-1/mex-3 RNA binding, dose response, biochemical, fluorescence polarization (AID 1964);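 further: purified POS-1 fused to maltose binding protein made in E. coli; potency of compounds blocking POS-1 binding to fluorescent RNA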
T1 sequence (G5EF15 whole entry): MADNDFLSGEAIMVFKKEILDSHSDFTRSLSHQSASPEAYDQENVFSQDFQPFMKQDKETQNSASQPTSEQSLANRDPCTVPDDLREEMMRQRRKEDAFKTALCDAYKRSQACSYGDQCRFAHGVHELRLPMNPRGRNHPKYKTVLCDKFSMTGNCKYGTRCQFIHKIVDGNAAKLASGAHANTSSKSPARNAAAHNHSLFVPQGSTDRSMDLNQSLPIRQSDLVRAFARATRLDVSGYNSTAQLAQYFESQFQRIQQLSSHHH

SUMO-activating enzyme [2] = biological target: T2, SUMO-activating enzyme (Homo sapiens, UniProt Q9UBT2); assay: SUMOylation inhibitor hit validation, confirmation, SUMOylation inhibitor project, biochemical, AlphaScreen (AID 2018); type: functional
[3] = biological target: T3, Zinc finger protein mex-5 (Caenorhabditis elegans, UniProt Q9XUB2); assay: MEX-5/TCR-2 RNA interaction inhibitors, dose response, biochemical, C. elegans, fluorescence polarization (AID 1960)
T3 sequence (Q9XUB2 whole entry): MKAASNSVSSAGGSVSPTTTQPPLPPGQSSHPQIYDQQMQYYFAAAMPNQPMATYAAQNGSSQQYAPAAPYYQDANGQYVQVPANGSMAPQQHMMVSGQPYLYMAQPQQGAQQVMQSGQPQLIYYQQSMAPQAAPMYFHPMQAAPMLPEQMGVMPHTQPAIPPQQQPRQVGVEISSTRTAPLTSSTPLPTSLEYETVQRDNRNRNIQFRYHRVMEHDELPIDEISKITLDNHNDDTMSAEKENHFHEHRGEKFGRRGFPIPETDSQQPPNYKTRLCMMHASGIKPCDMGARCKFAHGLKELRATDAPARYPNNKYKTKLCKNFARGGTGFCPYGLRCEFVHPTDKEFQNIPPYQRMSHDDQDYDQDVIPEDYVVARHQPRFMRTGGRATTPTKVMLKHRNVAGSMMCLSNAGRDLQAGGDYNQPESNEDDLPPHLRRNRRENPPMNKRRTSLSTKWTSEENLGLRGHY

SUMO-activating enzyme [4] = biological target: T2, SUMO-activating enzyme; assay: inhibitors of in vitro SUMOylation cascade, primary screen, biochemical, HTRF, uHTS (AID 2006); type: protein-complex assay
[5] = enhancers of respiration in Yfh1-depleted yeast, dose response, Friedreich's ataxia, plus single-dose screen (AID 1465); type: functional;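 further: yeast depleted of Yfh1p frataxin homolog grown on glycerol needing respiration; WST-1 tetrazolium dye reduction as measure of cellular dehydrogenase metabolic activity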
Cytochrome P450 2C19 = Cytochrome P450 2C19 (Homo sapiens, UniProt P33261); assay: qHTS Assay for Inhibitors and Substrates of Cytochrome P450 2C19. [Related pubchem assays: 410 ]; type: ADME; settings: read-out: Potency
[6] = system: Streptococcus sp. 'group A'; assay: growth inhibition of control SK(-) GAS strain, dose response, counter-screen for streptokinase expression inhibitor project, luminescence, kanamycin, BacTiterGlo, confirmation (AID 1900); type: functional, organism-based
Streptokinase A = biological target: T4, Streptokinase A (Streptococcus pyogenes serotype M1, UniProt P10520); assay: S. pyogenes streptokinase expression inhibitors, potency, dose response, plasminogen activation absorbance, OD405 (AID 1914); type: functional, Streptococcus pyogenes M1 GAS;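 further: secreted streptokinase activity via plasminogen activation per viability signal from cell pellet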
T4 sequence (P10520 whole entry): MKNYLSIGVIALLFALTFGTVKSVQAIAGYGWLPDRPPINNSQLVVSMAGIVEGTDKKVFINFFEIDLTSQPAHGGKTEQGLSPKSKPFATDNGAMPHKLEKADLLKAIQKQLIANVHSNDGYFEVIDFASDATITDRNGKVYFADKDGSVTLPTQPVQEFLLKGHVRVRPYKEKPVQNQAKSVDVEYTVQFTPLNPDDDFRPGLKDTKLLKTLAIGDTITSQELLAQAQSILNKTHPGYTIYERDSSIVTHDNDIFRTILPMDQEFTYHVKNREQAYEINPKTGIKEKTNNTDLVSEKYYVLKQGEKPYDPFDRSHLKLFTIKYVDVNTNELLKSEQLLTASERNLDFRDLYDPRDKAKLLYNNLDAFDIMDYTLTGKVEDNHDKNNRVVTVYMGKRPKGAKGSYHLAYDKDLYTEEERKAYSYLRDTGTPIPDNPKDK

[7] = biological target: Peroxisome proliferator-activated receptor gamma/Nuclear receptor corepressor 2 (Homo sapiens, UniProt P37231+Q9Y618); assay: Counterscreen for NR2E3 inverse agonists: TR-FRET-based biochemical high throughput dose response assay to identify inverse agonists of the interaction between peroxisome proliferator-activated receptor gamma (PPARg) and nuclear receptor co-repressor 2 (NCOR2).; type: functional
[8] = biological target: Photoreceptor-specific nuclear receptor (Homo sapiens, UniProt Q9Y5X4); assay: NR2E3 inverse agonists, dose response, biochemical, TR-FRET (AID 463256); type: functional
Streptococcus = assay: Group A Streptococcus viability loss, dose response, counter-screen for streptokinase expression inhibitor project, luminescence, BacTiterGlo (AID 1915); type: functional, organism-based;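 further: potency for reduction of bacterial viability or growth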
NADPH oxidase 1 = NADPH oxidase 1 (Homo sapiens, UniProt Q9Y5S8); type: functional, cell-based;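 further: Cell-based assay with luminescence read-out, IC50 derived from inhibitor dose-response curves; intracellular ROS from endogenous NOX1 in intact HT29 colon cancer cells; potency of inhibitors that lower the ROS luminescence signal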
[9] = biological target: 5-hydroxytryptamine receptor 1A (Homo sapiens, UniProt P08908); type: functional
[10] = biological target: Sphingosine 1-phosphate receptor 2 (Homo sapiens, UniProt O95136); assay: Dose Response Cell Based Assay for Agonists of the S1P2 Receptor of Purchased Analogues. [Related pubchem assays: 729, 843, 854, 736 ]; type: functional
Bcl-2-like protein 10 = Bcl-2-like protein 10 (Homo sapiens, UniProt Q9HD36); assay: Biochemical TR3 FP assay of Bcl-B inhibitor potency, EC50 (AID 1243); type: functional
Vero [11] = assay: host cell cytotoxicity of antiviral hits, dose response, cytotoxicity control for West Nile virus antiviral project, secondary assay (AID 1650); type: functional; settings: Chlorocebus sabaeus
Vero [12] = assay: West Nile virus antiviral activity, cell-based, CPE readout (AID 1621); type: functional; settings: Chlorocebus sabaeus
Trypsin = Trypsin (Sus scrofa, UniProt P00761); assay: porcine trypsin inhibitors, dose response, selectivity assay for Rce1 protease inhibitor project, biochemical, quenched peptide fluorescence, cherry-pick (AID 488789)
CAAX prenyl protease 2 = biological target: T5, CAAX prenyl protease 2 (Saccharomyces cerevisiae S288c, UniProt Q03530); type: biochemical
T5 sequence (Q03530 whole entry): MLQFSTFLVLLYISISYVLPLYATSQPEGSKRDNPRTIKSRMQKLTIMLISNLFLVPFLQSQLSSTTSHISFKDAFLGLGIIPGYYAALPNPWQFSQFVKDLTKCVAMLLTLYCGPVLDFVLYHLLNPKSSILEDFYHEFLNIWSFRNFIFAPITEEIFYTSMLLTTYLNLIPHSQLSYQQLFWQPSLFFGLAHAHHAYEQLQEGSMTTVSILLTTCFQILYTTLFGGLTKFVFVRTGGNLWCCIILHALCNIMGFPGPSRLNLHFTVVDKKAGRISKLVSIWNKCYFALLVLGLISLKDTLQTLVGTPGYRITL

[13] = biological target: T6, DNA repair and recombination protein RAD54-like (Homo sapiens, UniProt Q92698); assay: inhibitors of human RAD54 branch migration, confirmation, biochemical, fluorescence, cherry-picked samples, dose series (AID 651657); type: functional
T6 sequence (Q92698 whole entry): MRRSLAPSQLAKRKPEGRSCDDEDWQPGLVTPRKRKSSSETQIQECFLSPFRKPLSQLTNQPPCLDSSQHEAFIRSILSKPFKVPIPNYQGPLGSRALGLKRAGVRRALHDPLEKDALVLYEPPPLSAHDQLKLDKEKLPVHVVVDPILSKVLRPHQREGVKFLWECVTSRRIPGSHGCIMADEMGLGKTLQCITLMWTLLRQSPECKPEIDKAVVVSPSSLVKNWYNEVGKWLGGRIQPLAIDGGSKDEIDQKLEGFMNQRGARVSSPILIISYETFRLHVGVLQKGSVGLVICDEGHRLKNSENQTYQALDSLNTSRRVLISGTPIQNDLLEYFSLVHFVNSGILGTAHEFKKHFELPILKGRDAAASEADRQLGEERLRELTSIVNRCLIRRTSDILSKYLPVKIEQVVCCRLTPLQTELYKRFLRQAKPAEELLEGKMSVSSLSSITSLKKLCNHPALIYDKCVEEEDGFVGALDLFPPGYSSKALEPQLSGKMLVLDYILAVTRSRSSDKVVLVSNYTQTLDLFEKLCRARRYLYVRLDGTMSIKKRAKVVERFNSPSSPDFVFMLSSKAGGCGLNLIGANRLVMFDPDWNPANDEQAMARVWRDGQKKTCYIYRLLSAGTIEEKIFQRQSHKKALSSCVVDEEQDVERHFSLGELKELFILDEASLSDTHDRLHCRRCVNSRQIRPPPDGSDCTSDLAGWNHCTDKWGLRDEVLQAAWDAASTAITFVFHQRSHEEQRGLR

[14] = biological target: T7, DNA repair protein RAD52 homolog (Homo sapiens, UniProt P43351); type: functional, biochemical
T7 sequence (P43351 whole entry): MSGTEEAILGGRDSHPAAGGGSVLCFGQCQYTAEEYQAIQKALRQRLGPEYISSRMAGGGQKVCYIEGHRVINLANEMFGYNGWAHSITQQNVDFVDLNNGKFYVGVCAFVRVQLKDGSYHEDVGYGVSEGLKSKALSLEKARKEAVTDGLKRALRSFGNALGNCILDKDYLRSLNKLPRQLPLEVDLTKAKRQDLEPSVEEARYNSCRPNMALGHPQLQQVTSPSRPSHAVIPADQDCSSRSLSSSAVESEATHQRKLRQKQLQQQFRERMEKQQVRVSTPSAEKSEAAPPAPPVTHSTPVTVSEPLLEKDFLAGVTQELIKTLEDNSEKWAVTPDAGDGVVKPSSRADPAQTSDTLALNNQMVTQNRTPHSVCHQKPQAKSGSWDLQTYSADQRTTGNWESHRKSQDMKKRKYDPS

[15] = biological target: Peroxisome proliferator-activated receptor gamma/Nuclear receptor coactivator 1 (Homo sapiens, UniProt P37231); assay: TR-FRET dose response biochemical High Throughput Screening assay for agonists of the steroid receptor coactivator 1 (SRC-1) recruitment by the peroxisome proliferator-activated receptor gamma (PPAR gamma): non-selective agonists. [Related pubchem assays (depositor defined):AID1300, AID1808, AID504735, AID631]; type: protein assay
[16] = biological target: Peroxisome proliferator-activated receptor gamma/Nuclear receptor coactivator 3 (Homo sapiens, UniProt P37231); assay: TR-FRET dose response biochemical High Throughput Screening assay for agonists of the steroid receptor coactivator 3 (SRC-3) recruitment by the peroxisome proliferator-activated receptor gamma (PPAR gamma): non-selective agonists. [Related pubchem assays: 1301 (Confirmation screen.), 1048 (Primary screen.)]; type: functional
[17] = biological target: Mothers against decapentaplegic homolog 3 (Homo sapiens, UniProt P84022); assay: SMAD3 transcription factor inhibitors, dose response (AID 715); type: functional
[18] = biological target: Peroxisome proliferator-activated receptor gamma/Nuclear receptor coactivator 2 (Homo sapiens, UniProt P37231); assay: TR-FRET dose response biochemical High Throughput Screening assay for agonists of the steroid receptor coactivator 2 (SRC-2) recruitment by the peroxisome proliferator-activated receptor gamma (PPAR gamma): non-selective agonists. [Related pubchem assays: 1297, 1032 ]; type: functional
Estrogen receptor beta [19] = biological target: T8, Estrogen receptor beta (Homo sapiens, UniProt Q92731);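 further: recombinant ER-beta bound to coactivator SRC1 peptide in presence of estradiol agonist; inhibitors block coactivator peptide binding and lower the FRET signal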
Estrogen receptor beta [20] = biological target: T8, Estrogen receptor beta; assay: ERβ–SRC-3 coactivator interaction inhibitors, confirmation, orthogonal assay, biochemical, ELISA, streptavidin-HRP readout (AID 1060)
[21] = biological target: Aryl hydrocarbon receptor (Homo sapiens, UniProt P35869); assay: Luminescence-based cell-based high throughput dose response assay for activators of the Aryl Hydrocarbon Receptor (AHR). [Related pubchem assays: 2796 (Primary screen (AHR activators in singlicate)), 2845 (Confirmation screen (AHR activators in triplicate)), 434939 (Counterscreen (PXR activators in triplicate)), 2804 (Summary (AHR activators))]; type: ADME
Chain of Aryl hydrocarbon receptor (P35869 whole entry): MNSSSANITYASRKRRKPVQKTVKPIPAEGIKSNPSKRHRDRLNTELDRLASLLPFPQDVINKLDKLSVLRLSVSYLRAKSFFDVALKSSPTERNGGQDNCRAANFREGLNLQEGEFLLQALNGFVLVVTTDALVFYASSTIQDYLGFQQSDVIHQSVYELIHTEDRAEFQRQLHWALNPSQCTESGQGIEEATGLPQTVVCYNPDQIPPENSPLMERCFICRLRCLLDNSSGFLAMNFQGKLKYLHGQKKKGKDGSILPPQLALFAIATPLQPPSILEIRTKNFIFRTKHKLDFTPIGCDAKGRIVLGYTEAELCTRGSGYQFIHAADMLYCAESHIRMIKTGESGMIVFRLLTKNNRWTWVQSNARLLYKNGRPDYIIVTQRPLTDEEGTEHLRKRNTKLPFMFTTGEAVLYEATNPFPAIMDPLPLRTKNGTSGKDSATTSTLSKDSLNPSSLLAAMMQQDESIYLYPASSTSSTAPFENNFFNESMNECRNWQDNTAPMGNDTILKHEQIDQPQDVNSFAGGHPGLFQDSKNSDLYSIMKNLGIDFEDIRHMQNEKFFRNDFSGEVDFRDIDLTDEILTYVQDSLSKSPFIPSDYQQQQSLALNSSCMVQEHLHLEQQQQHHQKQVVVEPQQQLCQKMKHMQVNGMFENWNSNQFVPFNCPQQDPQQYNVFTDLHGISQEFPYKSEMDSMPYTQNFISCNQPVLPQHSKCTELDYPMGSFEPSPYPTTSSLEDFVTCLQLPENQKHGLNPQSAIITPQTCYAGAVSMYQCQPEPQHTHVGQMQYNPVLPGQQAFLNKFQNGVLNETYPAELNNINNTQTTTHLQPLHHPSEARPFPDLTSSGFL

T8 sequence (Q92731 whole entry): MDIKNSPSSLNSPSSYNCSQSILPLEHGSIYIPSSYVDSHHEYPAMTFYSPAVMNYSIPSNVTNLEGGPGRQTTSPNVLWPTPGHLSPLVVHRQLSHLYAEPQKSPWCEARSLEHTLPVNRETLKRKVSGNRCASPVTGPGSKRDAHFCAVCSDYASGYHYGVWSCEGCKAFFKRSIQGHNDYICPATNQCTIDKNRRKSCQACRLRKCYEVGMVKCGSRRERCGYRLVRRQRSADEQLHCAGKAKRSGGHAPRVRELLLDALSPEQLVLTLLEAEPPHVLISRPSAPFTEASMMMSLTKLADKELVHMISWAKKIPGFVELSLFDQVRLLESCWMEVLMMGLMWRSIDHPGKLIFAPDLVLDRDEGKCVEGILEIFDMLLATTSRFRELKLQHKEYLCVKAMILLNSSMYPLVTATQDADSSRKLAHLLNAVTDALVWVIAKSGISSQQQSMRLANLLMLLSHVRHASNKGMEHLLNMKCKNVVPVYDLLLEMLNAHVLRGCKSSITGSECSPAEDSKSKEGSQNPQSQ
T2 sequence (Q9UBE0 whole entry): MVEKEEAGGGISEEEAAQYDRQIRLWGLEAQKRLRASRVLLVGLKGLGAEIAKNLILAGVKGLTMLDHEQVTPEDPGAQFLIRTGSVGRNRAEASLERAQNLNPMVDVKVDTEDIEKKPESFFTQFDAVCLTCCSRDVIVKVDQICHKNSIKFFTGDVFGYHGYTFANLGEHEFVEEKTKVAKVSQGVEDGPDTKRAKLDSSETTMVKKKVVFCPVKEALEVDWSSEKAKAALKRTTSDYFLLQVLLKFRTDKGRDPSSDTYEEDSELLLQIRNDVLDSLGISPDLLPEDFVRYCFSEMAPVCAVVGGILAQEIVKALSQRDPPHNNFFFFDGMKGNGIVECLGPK
T2 sequence (Q9UBT2 whole entry): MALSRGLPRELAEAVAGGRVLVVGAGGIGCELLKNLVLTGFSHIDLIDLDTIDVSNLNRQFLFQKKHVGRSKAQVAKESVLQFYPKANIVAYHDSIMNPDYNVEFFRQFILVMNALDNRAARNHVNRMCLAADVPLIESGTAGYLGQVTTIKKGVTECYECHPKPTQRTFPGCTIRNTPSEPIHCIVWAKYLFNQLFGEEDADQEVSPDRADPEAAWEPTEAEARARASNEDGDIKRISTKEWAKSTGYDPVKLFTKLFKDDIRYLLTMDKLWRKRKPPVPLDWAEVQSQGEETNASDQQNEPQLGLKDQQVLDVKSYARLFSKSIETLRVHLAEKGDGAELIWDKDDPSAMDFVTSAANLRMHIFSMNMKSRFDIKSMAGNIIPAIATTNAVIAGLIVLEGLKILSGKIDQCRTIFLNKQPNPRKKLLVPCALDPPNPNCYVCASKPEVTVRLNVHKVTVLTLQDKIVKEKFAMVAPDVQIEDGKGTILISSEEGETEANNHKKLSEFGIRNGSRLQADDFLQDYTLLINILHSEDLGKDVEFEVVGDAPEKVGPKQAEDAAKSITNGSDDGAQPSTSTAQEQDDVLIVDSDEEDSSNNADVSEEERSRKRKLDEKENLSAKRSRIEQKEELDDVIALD
Chain of NADPH oxidase 1 (Q9Y5S8 whole entry): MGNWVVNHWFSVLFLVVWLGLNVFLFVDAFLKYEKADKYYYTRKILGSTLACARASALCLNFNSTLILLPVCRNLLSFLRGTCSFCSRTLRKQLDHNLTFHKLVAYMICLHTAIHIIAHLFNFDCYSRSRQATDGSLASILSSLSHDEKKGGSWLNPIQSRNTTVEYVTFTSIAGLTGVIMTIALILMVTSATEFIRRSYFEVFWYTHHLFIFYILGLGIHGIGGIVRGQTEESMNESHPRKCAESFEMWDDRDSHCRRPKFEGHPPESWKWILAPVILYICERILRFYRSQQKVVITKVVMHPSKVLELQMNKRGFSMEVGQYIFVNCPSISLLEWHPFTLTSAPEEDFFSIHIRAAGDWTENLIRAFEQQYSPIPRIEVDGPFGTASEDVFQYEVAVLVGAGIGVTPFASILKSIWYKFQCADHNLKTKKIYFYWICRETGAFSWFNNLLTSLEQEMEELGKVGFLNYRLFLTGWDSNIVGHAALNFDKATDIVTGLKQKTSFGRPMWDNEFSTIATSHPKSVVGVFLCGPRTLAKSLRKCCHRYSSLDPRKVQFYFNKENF
Chain of 5-hydroxytryptamine receptor 1A (P08908 whole entry): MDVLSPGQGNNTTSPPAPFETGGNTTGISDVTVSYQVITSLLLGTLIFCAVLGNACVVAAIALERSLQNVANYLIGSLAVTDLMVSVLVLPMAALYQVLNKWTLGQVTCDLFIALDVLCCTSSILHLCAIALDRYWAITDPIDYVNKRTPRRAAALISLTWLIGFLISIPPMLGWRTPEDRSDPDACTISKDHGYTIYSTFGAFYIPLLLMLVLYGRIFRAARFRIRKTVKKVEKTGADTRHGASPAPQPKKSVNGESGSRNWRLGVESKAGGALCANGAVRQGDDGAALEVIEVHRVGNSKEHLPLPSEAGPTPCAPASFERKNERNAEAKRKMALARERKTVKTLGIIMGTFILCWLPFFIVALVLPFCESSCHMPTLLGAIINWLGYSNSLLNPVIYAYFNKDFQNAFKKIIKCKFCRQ
Chain of Bcl-2-like protein 10 (Q9HD36 whole entry): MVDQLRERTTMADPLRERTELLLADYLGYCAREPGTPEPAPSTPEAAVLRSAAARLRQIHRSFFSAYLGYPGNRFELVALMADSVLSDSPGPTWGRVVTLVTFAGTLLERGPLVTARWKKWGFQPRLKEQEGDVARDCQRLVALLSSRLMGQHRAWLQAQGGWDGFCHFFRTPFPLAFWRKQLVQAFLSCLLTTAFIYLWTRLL
Chain of Trypsin (P00761 whole entry): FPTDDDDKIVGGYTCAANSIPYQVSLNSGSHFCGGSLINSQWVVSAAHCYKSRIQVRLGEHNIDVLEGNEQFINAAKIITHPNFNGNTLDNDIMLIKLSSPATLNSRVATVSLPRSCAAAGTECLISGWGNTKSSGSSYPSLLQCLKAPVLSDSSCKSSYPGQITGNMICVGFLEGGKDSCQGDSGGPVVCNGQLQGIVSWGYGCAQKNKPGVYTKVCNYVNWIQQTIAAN
Chain of Mothers against decapentaplegic homolog 3 (P84022 whole entry): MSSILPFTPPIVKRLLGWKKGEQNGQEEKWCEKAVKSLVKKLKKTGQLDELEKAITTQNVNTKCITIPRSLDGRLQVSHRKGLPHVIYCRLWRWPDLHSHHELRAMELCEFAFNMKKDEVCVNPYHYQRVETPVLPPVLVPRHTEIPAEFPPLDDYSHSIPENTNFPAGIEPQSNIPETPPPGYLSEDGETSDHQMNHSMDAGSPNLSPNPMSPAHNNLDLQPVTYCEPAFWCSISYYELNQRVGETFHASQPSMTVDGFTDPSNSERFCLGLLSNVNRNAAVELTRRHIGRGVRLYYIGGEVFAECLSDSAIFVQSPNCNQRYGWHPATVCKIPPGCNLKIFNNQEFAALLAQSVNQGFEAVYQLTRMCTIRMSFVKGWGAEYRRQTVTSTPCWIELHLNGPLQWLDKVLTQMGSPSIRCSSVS
Chain of Sphingosine 1-phosphate receptor 2 (O95136 whole entry): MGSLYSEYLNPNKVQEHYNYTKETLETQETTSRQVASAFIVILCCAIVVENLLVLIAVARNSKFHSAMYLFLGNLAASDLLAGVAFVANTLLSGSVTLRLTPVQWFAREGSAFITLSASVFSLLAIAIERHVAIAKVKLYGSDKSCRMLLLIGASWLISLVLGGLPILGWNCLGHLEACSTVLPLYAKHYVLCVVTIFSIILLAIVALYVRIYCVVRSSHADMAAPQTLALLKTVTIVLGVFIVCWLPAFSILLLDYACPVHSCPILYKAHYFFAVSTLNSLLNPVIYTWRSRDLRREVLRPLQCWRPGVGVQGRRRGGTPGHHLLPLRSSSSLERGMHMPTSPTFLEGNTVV
Chain of Photoreceptor-specific nuclear receptor (Q9Y5X4 whole entry): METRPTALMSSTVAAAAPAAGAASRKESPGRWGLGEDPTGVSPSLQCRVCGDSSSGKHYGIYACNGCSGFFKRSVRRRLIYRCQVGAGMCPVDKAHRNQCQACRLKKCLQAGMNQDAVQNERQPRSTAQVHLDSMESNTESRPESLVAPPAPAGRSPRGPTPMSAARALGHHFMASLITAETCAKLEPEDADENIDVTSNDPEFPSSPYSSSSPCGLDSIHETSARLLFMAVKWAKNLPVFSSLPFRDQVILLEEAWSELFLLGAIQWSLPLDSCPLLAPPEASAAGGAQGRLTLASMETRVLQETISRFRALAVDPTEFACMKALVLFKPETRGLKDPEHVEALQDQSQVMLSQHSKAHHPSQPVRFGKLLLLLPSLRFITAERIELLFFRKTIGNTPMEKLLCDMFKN

COc1cc([N+](=O)[O-])cc(/C=N/NC(=O)CC#N)c1O
EC50 [1]: > 300 µM (inconclusive)
IC50 (SUMO-activating enzyme [2]): 1.15 µM (active)
EC50 [3]: > 300 µM (inconclusive)
IC50 (SUMO-activating enzyme [4]): 8.76 µM (active)
EC50 [5]: > 100 µM (active)

CC(C)C[C@H](NC(=O)[C@@H](NC(=O)N[C@@H](Cc1ccccc1)C(=O)O)[C@H]1CCN=C(N)N1)C(=O)N[C@H](C=O)Cc1ccccc1
AC50 (Cytochrome P450 2C19): 10 µM (inconclusive)

O=C(COc1ccc(Cl)cc1Cl)Nc1ccc(-c2ccc(N3CCOCC3)nn2)cc1
EC50 [6]: > 150 µM (not active)
EC50 (Streptokinase A): > 150 µM (not active)
IC50 [7]: 1.51 µM (active)
IC50 [8]: 1.43 µM (active)
EC50 (Streptococcus): > 150 µM (not active)

C=C(NNc1c(Cl)c(Cl)nc(C(=O)O)c1Cl)c1ccc2c(c1)OCCO2
IC50 (NADPH oxidase 1): > 17 µM (not active)

Cc1c(CN2CCN(c3cccc(C(F)(F)F)c3)CC2)c(=O)n(-c2ccccc2)n1C
EC50 [9]: > 50 µM (not active)

Cc1cc(C(=O)CN2C(=O)C(=O)N(C3CCCC3)C2=O)c(C)n1Cc1ccccc1
EC50 [10]: > 30 µM (not active)

Nc1ccc(Oc2ccc(N)c(N)c2)cc1N
EC50 (Bcl-2-like protein 10): 5.37 µM (active)

CCN(CC)CCCNC(=O)c1cc2c(-c3cccc(OC)c3)nn(C)c2s1
CC50 (Vero [11]): > 100 µM (active)
IC50 (Vero [12]): 19.9 µM (active)
AC50 (Trypsin): 9.95 µM (active)
AC50 (CAAX prenyl protease 2): 77.8 µM (active)
AC50 [13]: 34.1 µM (active)
AC50 [14]: 6.07 µM (active)

CCN1CCCC1CNC(=O)CSc1cc(=O)n(C)c2cc(Cl)ccc12 (stereo not drawn)
EC50 [15]: > 79.4 µM (inactive)
EC50 [16]: > 79.4 µM (not active)
IC50 [17]: 8.7 µM (active)
EC50 [18]: > 79.4 µM (not active)

O=C(c1cc2ncc(Br)cn2n1)N1CCOCC1
IC50 (Estrogen receptor beta [19]): 9.16 µM (active)
IC50 (Estrogen receptor beta [20]): 23 µM (not active)

Cc1nc(C)c(C(=O)N/N=C/c2c[nH]c3ccccc23)s1
EC50 [21]: > 91.7 µM (not active)

From ChEMBL document CHEMBL1201862, “PubChem BioAssay data set” (2004)
